≈ marks a conversion by molar mass, not a printed value.
Experiments:
[1] = Hemolysis (Drabkin's method); format: cell-based; details: human, washed erythrocyte (RBC) suspension, 40% hematocrit, pH 7.4, single drug, RT, dark, CTRL− 11.6%
Procedure: Blood samples were collected from healthy human volunteers into Vacutainer tubes containing 3% sodium citrate (BD Biosciences, Warsaw, Poland). Whole blood was centrifuged at 1500 rpm (RCF = 214 g) for 10 min in a CompactStar CS4 centrifuge (VWR) at RT to separate erythrocytes, which were washed twice with PBS (pH 7.4) and centrifuged at 1500 rpm for 5 min at RT after each wash. Hematocrit was measured to adjust the final RBC concentration in PBS (pH 7.4) to 40%. The drugs were then dissolved in the RBC suspension at the final concentrations outlined in Figure 8. RBCs incubated in dH2O were used as a positive control (100% hemolysis), while RBCs in PBS were used as the negative control. A blank sample of PBS without RBCs or drugs provided a baseline for absorbance measurements. Experimental samples, along with positive, negative, and vehicle (0.5% DMSO) controls, were incubated for 4 h at RT in the dark. After incubation, the samples were centrifuged at 1500 rpm for 5 min at RT, and the supernatant was collected to measure hemoglobin release using Drabkin’s method. Absorbance was measured at 540 nm with a Jenway 6305 UV/Vis spectrophotometer (Bibby Scientific, Staffordshire, UK). This study was conducted in triplicate. The percentage of hemolysis was calculated by comparing the absorbance at 540 nm (OD540) of the test sample with that of the positive control using the following formula:(2) % Hemolysis=OD540Test−OD540(Blank)/OD540Total Lysis−OD540(Blank)×100%

[2] = system: A549, HepG2, MCF-7, and U-87MG; experiment: Doxorubicin accumulation assay, sensitive cell lines; format: cell-based, human
Procedure: (§1) Cells were seeded at a density of 2 × 10^4 cells per well in black 96-well plates as described in Section 3.6.

CT26 colon cancer model = system: CT26 colon cancer model; parameters: method as in PMID 36033393; details: GLIM 5 mg/kg every 2 days, i.p.; cited from earlier work
U-87MG cells = experiment: MTT cytotoxicity / synergy assay, 72 h, U-87MG; format: cell-based; details: Homo sapiens, n.d. = IC50 not achieved within concentrations tested, read-out: IC50 Value in Specific Cell Line, U-87MG
Procedure: (§2) The synergistic effects of drug combinations were studied in various cancer cell lines, including MCF-7 (human breast cancer), A549 (human lung cancer), U-87 MG (human malignant glioma), HepG2 (human liver cancer), and HUH7 (human liver cancer). HMEC-1, an immortalized human microvascular endothelial cell line, was used as a model for normal cells. All cell lines were purchased from ATCC (Rockville, MD, USA).
(§3) The cancer cell lines were cultured in Dulbecco’s Modified Eagle’s Medium (DMEM; Sigma-Aldrich) supplemented with 10% FBS and 1% penicillin/streptomycin mixture (10,000 U/mL penicillin and 10 mg/mL streptomycin; Sigma-Aldrich) at 37 °C in a humidified atmosphere with 5% CO2.
(§4) For the MTT assay, exponentially growing cells were seeded into 96-well plates at a density of 5 × 10³ cells per well. After 24 h of incubation, the medium was replaced with 100 µL of fresh medium containing the tested compounds. After 72 h of treatment, cell viability was assessed using the MTT assay as described earlier. […] IC50 values were calculated using GraphPad Prism 9 software (GraphPad Software).

HepG2 cells = experiment: MTT cytotoxicity / synergy assay, 72 h, HepG2; details: Homo sapiens, HepG2, 72 h, read-out: IC50 Value in Specific Cell Line, HepG2, MTT, 72 h; n.d. = IC50 not achieved within concentrations tested
Procedure: as §2, §3, §4

[3] = system: 4T1 breast cancer and B16F10 melanoma xenografts; details: 4T1, B16F10 xenografts, MMTV-PyMT; cited from earlier work
[4] = cited from earlier work
[5] = Analysis of drug solubility (Cobs by HPLC); format: physicochemical
Procedure: The drug content in the samples was determined using a previously described HPLC method. The analysis was performed on an Ultimate 3000 HPLC system (Dionex Co., Germering, Germany), equipped with a UV–Vis detector and a TSKgel ODS-100V column (particle size: 5 µm; dimensions: 4.6 mm i.d. × 15 cm; Tosoh Co., Tokyo, Japan). The mobile phase consisted of MeCN and 20 mM KH2PO4 buffer (pH 3.0) in an appropriate ratio. The flow rate was maintained at 1.0 mL/min, with the column temperature set to 30 °C. All compounds were detected at 228 nm.
Some samples included 0.05% (v/v) Tween-80. For experiments involving BSA, a separate solution was prepared by dissolving 4.5 mg/mL of BSA (cat. #422381B, VWR) in the same PBS (pH 7.4), with or without 0.05% (v/v) Tween-80. All samples were incubated at 37 °C with shaking for 24 h. After incubation, the samples were either centrifuged at 13,500 rpm (RCF = 12,225 g) for 15 min using a Micro Star 12 microcentrifuge (VWR), and 150 µL of the supernatant was collected for HPLC analysis, or filtered using 0.22 µm PVDF syringe filters (13 mm i.d., cat. #514-1251, VWR) or AcroPrep™ Advance 96-well filter plates (Pall Corporation, Dreieich, Germany) with various molecular weight cut-offs.

HMEC-1 cells = experiment: MTT cytotoxicity / synergy assay, 72 h, HMEC-1; details: Homo sapiens, HMEC-1, 72 h, read-out: IC50 Value in Specific Cell Line, HMEC-1
Procedure: as §2, §3, §4

A549 cells [6] = experiment: Doxorubicin accumulation assay, A549; format: cell-based, human; details: 50 µM DOXO and 1.56 µM GLIM, 3 h
Procedure: as §1

[7] = DLS particle size measurements; format: physicochemical
Procedure: Dynamic light scattering (DLS) measurements were performed using a Zetasizer Nano ZS instrument (Malvern Instruments, Malvern, UK). Samples of 2 mL were placed in disposable PMMA cuvettes (cat. #634-0677; VWR, Gdańsk, Poland) and measured at 37 °C. To ensure accuracy, each sample was measured at least three times. The data were processed using DTS v6.2 software (Malvern Instruments).

A549 cells [8] = experiment: MTT cytotoxicity / synergy assay, 72 h, A549; details: Homo sapiens, A549, 72 h, read-out: IC50 Value in Specific Cell Line, A549, MTT, 72 h; n.d. = IC50 not achieved within concentrations tested
Procedure: as §2, §3, §4

MCF-7 cells = experiment: MTT cytotoxicity / synergy assay, 72 h, MCF-7; format: cell-based, human; details: 72 h
Procedure: Stock solutions of the tested compounds were first prepared in DMSO at 200-fold the intended final concentration. […] The cells were treated for 72 h under the same conditions.
Following treatment, 25 μL of MTT solution was added to each well, and the plates were incubated for 2 h at 37 °C. […] IC₅₀ values, indicating the concentration required to reduce cell viability by 50% compared to untreated controls (set as 100% viability), were calculated using GraphPad Prism 9 software (GraphPad Software, San Diego, CA, USA). All data from this preliminary cytotoxic assay were analyzed by ANOVA followed by Tukey’s post hoc test for multiple comparisons, with significance set at p < 0.05. A similar statistical approach was used for the rest of the experimental work presented in this study.

concentration up to which Cobs matches the expected concentration ([5]; GLIM only in PBS pH 7.4, 37 °C, 24 h, centrifugation): up to 100 µM | observed concentration (Cobs) ([5]; GLIM only, 0.22 µm syringe filters, all tested samples): 8.6 to 16.6 µM | solubility kinetic at 24 h ([5]; PBS, pH 7.4, aqueous buffer, read-out: observed concentration (Cobs) above the threshold): ~5 µM (≈ 2.45 µg/mL) | d¯I of drug aggregates ([7]; PBS pH 7.4, 37 °C, […] BSA, GLIM beyond 200 µM): approx. 353 nm | diameter of aggregates ([7]; absence of BSA, buffers and culture media): over 300 nm
SMILES: CCC1=C(C)CN(C(=O)NCCc2ccc(S(=O)(=O)NC(=O)N[C@H]3CC[C@H](C)CC3)cc2)C1=O [GLIM, Glimepiride]
hemolysis at 4 h [1]: 11.2 to 11.9% | increase of DOXO levels [2]: up to 2.3 times | increase in CD8+ T cell infiltration (CT26 colon cancer model): about 100% | reduction of tumor mass (CT26 colon cancer model): 45% | IC50 (U-87MG cells): 186 µM | IC50 (HepG2 cells): 177 µM | effect on tumor growth and metastasis [3]: no effect | logP [4]: 3.81 | CC50 (HMEC-1 cells): 136 ± 5.1 µM | increase in DOXO level compared to DOXO monotherapy (A549 cells [6]): 227% | IC50 (A549 cells [8]): 353 µM | decrease in cell viability caused by 0.05% Tween-80 (MCF-7 cells; with vs. without 0.05% Tween-80): 24.6% | IC50 (MCF-7 cells; Homo sapiens, MCF7, 72 h, MTT, n.d. = IC50 not achieved within concentrations tested, read-out: IC50 Value in Specific Cell Line, MCF-7): 175 µM
